Measurements reported in patent US20250333424A1, “ANTIVIRAL COMPOUNDS” (Gilead Sciences, Inc., priority 2024, published 2025).
pEC50: −log10 of the molar value.

Tests used:
[1] = tested on: monocytic THP1 cells infected with HIV VSV-G pseudotyped GFP-NEF reporter virus; assay: cells; format: cell-based; conditions: Human immunodeficiency virus 1, THP-1, 24 h
[2] = tested on: CD4 cells, isolated from healthy donor PMBCs, infected with HIV VSV-G pseudotyped GFP-GAG reporter virus; assay: tissue or blood; format: cell-based; conditions: Homo sapiens, 72 h

Row | Structure (SMILES) | pEC50 [1] | pEC50 [2]
1 | Cc1cc(/C=C/C#N)cc(C)c1Oc1nc(NC23CC(C#N)(C2)C3)nc2[nH]ncc12 [Compound 10, (E)-3-((4-(4-(2-cyanovinyl)-2,6-dimethylphenoxy)-1H-pyrazolo[3,4-d]pyrimidin-6-yl)amino)bicyclo[1.1.1]pentane-1-carbonitrile] | 7.18 | 7.26
2 | Cc1nc2nc(NC34CC(C#N)(C3)C4)nc(Oc3c(C)cc(/C=C/C#N)cc3C)c2[nH]1 [Compound 14, (E)-3-((6-(4-(2-cyanovinyl)-2,6-dimethylphenoxy)-8-methyl-7H-purin-2-yl)amino)bicyclo[1.1.1]pentane-1-carbonitrile] | 7.09 | 7.07
3 | Cc1cc(/C=C/C#N)cc(C)c1Nc1nc(NC23CC(C#N)(C2)C3)nc2scnc12 [Compound 23, (E)-3-((7-((4-(2-cyanovinyl)-2,6-dimethylphenyl)amino)thiazolo[5,4-d]pyrimidin-5-yl)amino)bicyclo[1.1.1]pentane-1-carbonitrile] | 7.50 | 7.77
4 | Cc1cc(/C=C/C#N)cc(C)c1Oc1nc(NC23CC(C#N)(C2)C3)nc2nc(C(C)(F)F)n(C)c12 [Compound 41, (E)-3-((6-(4-(2-cyanovinyl)-2,6-dimethylphenoxy)-8-(1,1-difluoroethyl)-7-methyl-7H-purin-2-yl)amino)bicyclo[1.1.1]pentane-1-carbonitrile] |  | 7.11
5 | Cc1cc(/C=C/C#N)cc(C)c1Oc1nc(NC23CC(C#N)(C2)C3)nc2nc[nH]c12 [Compound 44, (E)-3-((6-(4-(2-cyanovinyl)-2,6-dimethylphenoxy)-7H-purin-2-yl)amino)bicyclo[1.1.1]pentane-1-carbonitrile] |  | 6.96
6 | Cc1nc2nc(NC34CC(C#N)(C3)C4)nc(Oc3c(F)cc(/C=C/C#N)cc3F)c2[nH]1 [Compound 58, (E)-3-((6-(4-(2-cyanovinyl)-2,6-difluorophenoxy)-8-methyl-7H-purin-2-yl)amino)bicyclo[1.1.1]pentane-1-carbonitrile] |  | 6.37
7 | Cc1nc2nc(NC34CC(C#N)(C3)C4)nc(Oc3c(Cl)cc(/C=C/C#N)cc3Cl)c2[nH]1 [Compound 59, (E)-3-((6-(2,6-dichloro-4-(2-cyanovinyl)phenoxy)-8-methyl-7H-purin-2-yl)amino)bicyclo[1.1.1]pentane-1-carbonitrile] |  | 6.47
8 | Cc1cc(/C=C/C#N)cc(C)c1Oc1nc(NC23CC(C#N)(C2)C3)nc2ncsc12 [Compound 75, (E)-3-((7-(4-(2-cyanovinyl)-2,6-dimethylphenoxy)thiazolo[4,5-d]pyrimidin-5-yl)amino)bicyclo[1.1.1]pentane-1-carbonitrile] |  | 7.26
9 | Cc1cc(/C=C/C#N)cc(C)c1Oc1nc(NC23CC(C#N)(C2)C3(F)F)nc2[nH]nc(C)c12 [Compound 77, (E)-3-((4-(4-(2-cyanovinyl)-2,6-dimethylphenoxy)-3-methyl-1H-pyrazolo[3,4-d]pyrimidin-6-yl)amino)-2,2-difluorobicyclo[1.1.1]pentane-1-carbonitrile] |  | 7.55
10 | Cc1cc(/C=C/C#N)cc(C)c1Oc1nc(NC23CC(C#N)(C2)C3(F)F)nc2c1CCO2 [Compound 78, (E)-3-((4-(4-(2-cyanovinyl)-2,6-dimethylphenoxy)-5,6-dihydrofuro[2,3-d]pyrimidin-2-yl)amino)-2,2-difluorobicyclo[1.1.1]pentane-1-carbonitrile] |  | 7.92
11 | Cc1cc(/C=C/C#N)cc(Cl)c1Oc1nc(NC23CC(C#N)(C2)C3)nc2[nH]nc(C)c12 [Compound 85, (E)-3-((4-(2-chloro-4-(2-cyanovinyl)-6-methylphenoxy)-3-methyl-1H-pyrazolo[3,4-d]pyrimidin-6-yl)amino)bicyclo[1.1.1]pentane-1-carbonitrile] |  | 7.68
12 | CCn1cnc2nc(NC34CC(C#N)(C3)C4)nc(Oc3c(C)cc(/C=C/C#N)cc3C)c21 [Compound 114, (E)-3-((6-(4-(2-cyanovinyl)-2,6-dimethylphenoxy)-7-ethyl-7H-purin-2-yl)amino)bicyclo[1.1.1]pentane-1-carbonitrile] |  | 7.29
13 | Cc1cc(/C=C/C#N)cc(C)c1Oc1nc(NC23CC(C#N)(C2)C3)nc2c1CSC2 [Compound 116, (E)-3-((4-(4-(2-cyanovinyl)-2,6-dimethylphenoxy)-5,7-dihydrothieno[3,4-d]pyrimidin-2-yl)amino)bicyclo[1.1.1]pentane-1-carbonitrile] |  | 7.20
14 | Cc1cc(/C=C/C#N)cc(C)c1Oc1nc(NC23CC(C#N)(C2)C3)nc2c1COC2 [Compound 117] |  | 7.62
15 | Cc1cc(/C=C/C#N)cc(C)c1Oc1nc(NC23CC(C#N)(C2)C3)nc2c1CCO2 [Compound 118, (E)-3-((4-(4-(2-cyanovinyl)-2,6-dimethylphenoxy)-5,6-dihydrofuro[2,3-d]pyrimidin-2-yl)amino)bicyclo[1.1.1]pentane-1-carbonitrile] |  | 7.09
16 | COC(=O)N1Cc2nc(NC34CC(C#N)(C3)C4)nc(Oc3c(C)cc(/C=C/C#N)cc3C)c2C1 [Compound 151, (E)-methyl 2-((3-cyanobicyclo[1.1.1]pentan-1-yl)amino)-4-(4-(2-cyanovinyl)-2,6-dimethylphenoxy)-5H-pyrrolo[3,4-d]pyrimidine-6(7H)-carboxylate] |  | 7.12
17 | Cc1cc(/C=C/C#N)cc(C)c1Oc1nc(NC23CC(C#N)(C2)C3)nc2c1C[N+](C)(C)C2 [Compound 152, (E)-2-((3-cyanobicyclo[1.1.1]pentan-1-yl)amino)-4-(4-(2-cyanovinyl)-2,6-dimethylphenoxy)-6,6-dimethyl-6,7-dihydro-5H-pyrrolo[3,4-d]pyrimidin-6-ium] |  | 5.47
18 | Cc1cc(/C=C/C#N)cc(C)c1Oc1nc(NC23CC(CC(F)F)(C2)C3)nc2nc[nH]c12 [Compound 155, (E)-3-(4-((2-((3-(2,2-difluoroethyl)bicyclo[1.1.1]pentan-1-yl)amino)-7H-purin-6-yl)oxy)-3,5-dimethylphenyl)acrylonitrile] |  | 6.38
19 | Cc1cc(/C=C/C#N)cc(C)c1Oc1nc(NC23CC(C#N)(C2)C3)nc2c1C1(C)SCCCN1C2=O (centres unmarked) [Example 246, (E)-3-((4-(4-(2-cyanovinyl)-2,6-dimethylphenoxy)-4b-methyl-10-oxo-4b,7,8,10-tetrahydro-6H-pyrimido[5′,4′:3,4]pyrrolo[2,1-b][1,3]thiazin-2-yl)amino)bicyclo[1.1.1]pentane-1-carbonitrile] | 7.38 | 
20 | Cc1cc(/C=C/C#N)cc(C)c1Oc1nc(NC23CC(C#N)(C2)C3)nc2c1[C@H](C(F)(F)F)NC2=O [Example 247, (R,E)-3-((4-(4-(2-cyanovinyl)-2,6-dimethylphenoxy)-7-oxo-5-(trifluoromethyl)-6,7-dihydro-5H-pyrrolo[3,4-d]pyrimidin-2-yl)amino)bicyclo[1.1.1]pentane-1-carbonitrile] | 7.40 | 
21 | Cc1cc(/C=C/C#N)cc(C)c1Oc1nc(NC23CC(C#N)(C2)C3)nc2ccn(C)c12 [Example 250, 3-[[4-[4-[(E)-2-cyanovinyl]-2,6-dimethyl-phenoxy]-5-methyl-pyrrolo[3,2-d]pyrimidin-2-yl]amino]bicyclo[1.1.1]pentane-1-carbonitrile] | 7.19 | 
22 | Cc1cc(/C=C/C#N)cc(C)c1Oc1nc(NC23CC(C#N)(C2)C3)nc2c1C1(C)OCC(C(F)(F)F)CN1C2=O (centres unmarked) [Example 253, (E)-3-((4-(4-(2-cyanovinyl)-2,6-dimethylphenoxy)-4b-methyl-10-oxo-7-(trifluoromethyl)-4b,7,8,10-tetrahydro-6H-pyrimido[5′,4′:3,4]pyrrolo[2,1-b][1,3]oxazin-2-yl)amino)bicyclo[1.1.1]pentane-1-carbonitrile] | 6.60 | 
23 | Cc1cc(/C=C/C#N)cc(C)c1Oc1nc(NC23CC(C#N)(C2)C3)nc2c1[C@@H](C(F)(F)F)NC2=O [Example 254, (S,E)-3-((4-(4-(2-cyanovinyl)-2,6-dimethylphenoxy)-7-oxo-5-(trifluoromethyl)-6,7-dihydro-5H-pyrrolo[3,4-d]pyrimidin-2-yl)amino)bicyclo[1.1.1]pentane-1-carbonitrile] | 7.15 | 
24 | COC(F)(F)C1NC(=O)c2nc(NC34CC(C#N)(C3)C4)nc(Oc3c(C)cc(/C=C/C#N)cc3C)c21 (centres unmarked) [Example 255, (E)-3-((4-2-((2-cyanovinyl)-2,6-dimethylphenoxy)-5-(difluoro(methoxy)methyl)-7-oxo-6,7-dihydro-5H-pyrrolo[3,4-d]pyrimidin-2-yl)amino)bicyclo[1.1.1]pentane-1-carbonitrile] | 7.28 | 
25 | Cc1cc(/C=C/C#N)cc(C)c1Oc1nc(NC23CC(C#N)(C2)C3)nc2nn3c(c12)CCCC3 [Example 256, (E)-3-((4-(4-(2-cyanovinyl)-2,6-dimethylphenoxy)-5,6,7,8-tetrahydropyrido[1′,2′:1,5]pyrazolo[3,4-d]pyrimidin-2-yl)amino)bicyclo[1.1.1]pentane-1-carbonitrile] | 7.44 | 
26 | Cc1cc(/C=C/C#N)cc(C)c1Oc1nc(NC23CC(C#N)(C2)C3)nc2nn3c(c12)CCC3 [Example 257, (E)-3-((4-(4-(2-cyanovinyl)-2,6-dimethylphenoxy)-6,7-dihydro-5H-pyrrolo[1′,2′:1,5]pyrazolo[3,4-d]pyrimidin-2-yl)amino)bicyclo[1.1.1]pentane-1-carbonitrile] | 7.64 | 
27 | C/C(C#N)=C\c1cc(C)c(Oc2nc(NC34CC(C#N)(C3)C4)nc3nn(C)cc23)c(C)c1 [Example 258, (E)-3-((4-(4-(2-cyanoprop-1-en-1-yl)-2,6-dimethylphenoxy)-2-methyl-2H-pyrazolo[3,4-d]pyrimidin-6-yl)amino)bicyclo[1.1.1]pentane-1-carbonitrile] | 6.75 | 
28 | Cc1cc(/C=C/C#N)cc(C)c1Oc1nc(NC23CC(C#N)(C2)C3)nc2nn3c(c12)COCC3 [Example 259, (E)-3-((4-(4-(2-cyanovinyl)-2,6-dimethylphenoxy)-7,8-dihydro-5H-pyrimido[4′,5′:3,4]pyrazolo[5,1-c][1,4]oxazin-2-yl)amino)bicyclo[1.1.1]pentane-1-carbonitrile] | 7.63 | 
29 | Cc1cc(/C=C/C#N)cc(C)c1Oc1nc(NC23CC(C#N)(C2)C3)nc2c1C(C)OC2 (centres unmarked) [Example 263, (E)-3-((4-(4-(2-cyanovinyl)-2,6-dimethylphenoxy)-5-methyl-5,7-dihydrofuro[3,4-d]pyrimidin-2-yl)amino)bicyclo[1.1.1]pentane-1-carbonitrile] | 7.22 | 
